Data on six molecules can be found in US4927959A, “Alprenolol derivatives” (Snow Brand Milk Products Co., Ltd., priority 1987, dated 1990).

Counter-ions that a name gives are not always drawn.

Series [1] is described as follows: conversion test to the parent drug (alprenolol) in buffer solution having the pH of 7.4. Particulars: hydrochloride, Britton-Robinson buffer pH 7.4, 37° C.; for half-life: read-out: Half-life time (T 1/2) (converted); for 50% producing time of the parent drug (T' 1/2): unit assumed. Format: physicochemical. As for the experimental part:
Assuming the absorption and distribution of the derivatives in vivo, conversion tests to the parent drug (alprenolol) were carried out by the following method in buffer solutions having the pH of 2, 4 and 7.4.
Britton-Robinson buffer solutions having the pH of 2, 4 and 7.4 were prepared. To each 800 μl of the buffer solution, 200 μl of an aqueous solution of each compound which had been adjusted to a concentration of 2 mg/ml were added. The resulting mixture was incubated at 37° C.
From each reaction mixture, 100 μl of sample were collected after 0, 1, 3, 5, 7 and 24 hours, diluted with a developer and subjected to high performance liquid chromatography (abbreviated as HPLC) under following conditions.
(d) Conditions of HPLC in the conversion test;
(d) Conditions of HPLC in the above conversion test;
As to the compounds (hydrochloride) described in the above (1)-(4), the conversion rate to the parent drug was examined in a buffer solution having the pH of 7.4 assuming blood pH. Table 1 illustrates half-life time (T 1/2) of each compound in the above buffer solution and 50% producing time (T' 1/2) of the parent drug in the same buffer solution.

Series [2] is described as follows: oral administration to dogs, plasma levels of the parent drug and AUC (improving effect on bioavailability). Format: in vivo, Female beagle dogs. The note with it: beagle dogs; for relationship between dose and AUC (area under the plasma concentration curve) (FIG. 14): alprenolol hydrochloride 2-30 mg/kg, hydrochlorides of (1) and (2) equivalent to 10 and 20 mg/kg; for plasma concentration of the parent drug (FIG. 13): hydrochlorides, dose equivalent to 20 mg/kg of alprenolol hydrochloride, 0.5-6 hours, versus alprenolol hydrochloride. As for the experimental part:
In the next step, the alprenolol drivative of this invention was orally administered to dogs as experimental animals. The results described below were obtained by investigating the improving effect on bioavailability. Female beagle dogs (a body weight of about 10 kg) were used as the experimental animals. The 12 dogs were divided into 2 groups of 6 dogs and each group was alternately subjected to the experiment with intervals of 2 weeks. To the dogs, 2, 5, 10, 20 and 30 mg/kg of alprenolol hydrochloride 13.50 and 27.00 mg/kg of the compound (1) hydrochloride, (equivalent to 10, 20 mg/kg of the alprenolol hydrochloride, respectively) and 13.99 and 27.98 mg/kg of the compound (2) hydrochloride (equivalent to 10 and 20 mg/kg of alprenolol hydrochloride, respectively) were orally administered. Blood was collected respectively after 0.5, 1, 2, 4 and 6 hours. The plasma separated from the blood was extracted with ethanol. Plasma levels of the parent drug were determined by HPLC. The conditions for the HPLC analysis are shown as follows: |Column ODS 4.6.phi. × 250 mm |Flow rate 0.8 ml/min |Eluent CH3 CN:CH3 OH:50 mM KH2 PO4

For series [3] the following is noted: cited from earlier work.

Take `C=CCc1ccccc1OCC(CNC(C)C)OC(=O)CCCC(=O)OCC` (centres unmarked) [(3), 4-Ethoxycarbonylbutanoic acid mono[1-{(2-allylphenoxy)methyl}-{2-(1-methylethyl)amino}ethyl]ester]: in series [1], the half-life was 1.3 h and the 50% producing time of the parent drug (T' 1/2) amounted to 2 h.

With `C=CCc1ccccc1OCC(CNC(C)C)OC(=O)CCCC(=O)O` (centres unmarked) [(2), pentanedioic acid mono[1-{(2-allylphenoxy)methyl}-{2-(1-methylethyl)amino}ethyl]ester hydrochloride], in series [2], the “relationship between dose and AUC (area under the plasma concentration curve) (FIG. 14)” value (“relationship between dose and AUC” for short) is on record as “linear relationships”; the “plasma concentration of the parent drug (FIG. 13)” value is “significantly high plasma concentration of the parent drug”. For the same molecule, in series [1], the half-life was 4.9 h and the 50% producing time of the parent drug (T' 1/2) amounted to 5 h.

`C=CCc1ccccc1OCC(CNC(C)C)OC(=O)/C=C\C(=O)O` (centres unmarked) [(4), (z)-Butenedioic acid mono[1-{(2-allylphenoxy)methyl}-{2-(1-methylethyl)amino}ethyl]ester]: in series [1], the half-life was 0.9 h and the 50% producing time of the parent drug (T' 1/2) was determined as 3 h.

Turning to `C=CCc1ccccc1OCC(O)CNC(C)C` (centres unmarked) [alprenolol], the “bioavailability of alprenolol in the oral administration” value in series [3] is 15%.

Take `C=CCc1ccccc1OCC(O)CNC(C)C` (centres unmarked) [alprenolol hydrochloride, reference compound]: the “relationship between dose and AUC” value in series [2] is on record as “non-linear relationship with the threshold due to the first-pass effect”.

Take `C=CCc1ccccc1OCC(CNC(C)C)OC(=O)CCC(=O)O` (centres unmarked) [(1), Butanedioic acid mono[1-{(2-allylphenoxy)methyl}{2-(1-methylethyl)amino}ethyl]ester]: in series [2], the “relationship between dose and AUC” value was “linear relationships”; the “plasma concentration of the parent drug (FIG. 13)” value is listed as “significantly high plasma concentration of the parent drug”. In addition, in series [1], the half-life was 7.4 h and the 50% producing time of the parent drug (T' 1/2) came out at 5 h.
